Earlier results on three compounds are cited in patent US20250099481A1, “BCL-2 INHIBITORS” (Newave Pharmaceutical Inc., priority 2022, published 2025).

For data set [1], the system named is H345 xenograft. Particulars: 100 mg/kg/day, H345 xenograft model.
Data set [2] has as its target T1, Bcl-w (Homo sapiens, UniProt Q92843).
T1 sequence (Q92843 1-193): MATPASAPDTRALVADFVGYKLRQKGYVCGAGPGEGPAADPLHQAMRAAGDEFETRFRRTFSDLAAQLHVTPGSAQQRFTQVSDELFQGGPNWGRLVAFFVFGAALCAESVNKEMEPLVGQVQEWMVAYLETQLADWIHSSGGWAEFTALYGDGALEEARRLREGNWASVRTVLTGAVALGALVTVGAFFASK

Data set [3] deals with xenograft models of small-cell lung cancer and acute lymphoblastic leukemia. Particulars: oral administration alone.
Data set [4] has as its system SCLC H146 cell line.
Data set [5] has as its system circulating platelets.
For data set [6] the following is noted: in vivo.
Data set [7] deals with established tumors.
For data set [8], the system named is RS4;11 cells.
Data set [9] has as its system DoHH2, Granta-519 xenografts. The conditions noted are these: single agent or in combination with Bendamustine and other agents.
Data set [10] deals with CLL. Particulars: read-out: average EC50, apoptosis.
The test system of data set [11] is RS4;11 xenografts. The conditions noted are these: single dose of 100 mg/kg.
Data set [12] relates to CLL who have 17p deletion. Particulars: Human Phase I and II data, CLL with 17p deletion.

In general, TGI refers to the reduction of tumour growth relative to the control group. What is called Ki is a dissociation constant, usually derived from enzyme kinetics or from competition with a known ligand. Usually IC50 stands for the concentration at which inhibition is half-maximal. Regarding `CC1(C)CCC(c2ccc(Cl)cc2)=C(CN2CCN(c3ccc(C(=O)NS(=O)(=O)c4ccc(N[C@H](CCN5CCOCC5)CSc5ccccc5)c(S(=O)(=O)C(F)(F)F)c4)cc3)CC2)C1` [ABT-263], in [1], the inhibition of tumour growth (TGI) is 80% and the “treated tumors indicating at least a 50% reduction in tumor volume” value is on record as 20%. Moreover, in data set [2], the Ki is 1 nM. In addition, the tumor response entry in data set [3] is reported as “complete tumor regressions”. Moreover, the IC50 in [4] is 110 nM. The “number of circulating platelets” value in data set [5] (clinical trial, inhibition of BCL-XL) was “rapid, concentration-dependent decrease in the number of circulating platelets”. Besides, in data set [5] (single-agent treatment in patients), the dose-limiting toxicity entry is given as “thrombocytopenia is the dose-limiting toxicity”.

For the compound `CN(C)CC[C@H](CSc1ccccc1)Nc1ccc(S(=O)(=O)NC(=O)c2ccc(N3CCN(Cc4ccccc4-c4ccc(Cl)cc4)CC3)cc2)cc1[N+](=O)[O-]` [ABT-737], the aqueous solubility entry is given as “low aqueous solubility”. Besides, the oral bioavailability result in data set [6] was “not orally bioavailable”. The “efficacy in animal models” value in [7] was “improves survival, causes regression of established tumors, and produces cures in a high percentage of the mice”.

The term EC50 denotes the concentration giving half of the maximal effect. For the compound ABT-199, in data set [8], the EC50 is 8 nM. Moreover, in [8] (cytochrome c release, caspase activation, accumulation of sub-G0/G1 DNA), the apoptosis induction entry is “induces a rapid apoptosis”. Further, in [9], the xenograft growth entry is “inhibits xenograft growth”. Besides, the EC50 in data set [10] was 3 nM. Moreover, in [11], the “maximal tumor growth inhibition” value is recorded as 95% and the tumor growth delay is recorded as 152%. For the same compound, in data set [12], the clinical efficacy entry is “highly efficacious”.
